Assay results published in PMC4646457 (PLoS ONE, 2015).
Values after ≈ are worked out from the molar mass of the structure shown. Like-named read-outs stand apart in the source and are kept apart here.

Tests used:
HER3 = assay: Quantitative IHC of phosphorylated HER3 in patient tumor (EGF10027); assay type: in vivo, human; conditions: for p-HER3 post-treatment OD: plasma […]
[1] = test system: HER2+ human breast cancer cell lines; set-up: method as in PMID 12467226; conditions: in vitro proliferative growth, cited from earlier work
HER2 phosphorylation = test system: HER2 phosphorylation; set-up: method as in printed; conditions: abstract, ref not given, cited from earlier work
efflux transporter ABCB1 = conditions: read-out: IC50 for inhibition of the efflux transporter ABCB1; cited from earlier work
[2] = test system: isolated canine cardiac Purkinje fibers; set-up: method as in EGF10027 protocol, CIB RM2000/00481/06; conditions: ref EGF10027 protocol, CIB RM2000/00481/06; cited from earlier work
[3] = set-up: method as in EGF10027 protocol, CIB RM2000/00481/06; conditions: ref EGF10027 protocol, CIB RM2000/00481/06, cited from earlier work
[4] = set-up: method as in EGF10027 protocol, CIB RM2000/00481/06; conditions: oral, male beagle dogs; ref EGF10027 protocol, CIB RM2000/00481/06; cited from earlier work
CYP3A4 = test system: CYP3A4; set-up: method as in EGF10027 protocol, CIB RM2000/00481/06; conditions: ref EGF10027 protocol, CIB RM2000/00481/06; cited from earlier work
[5] = set-up: method as in RM2005/00018/00 (Study EGF20008); conditions: single agent, heavily pre-treated population; ref RM2005/00018/00 (Study EGF20008); cited from earlier work
[6] = set-up: method as in study EGF10003; conditions: ref study EGF10003, cited from earlier work
HER2 = conditions: read-out: IC50 for HER2; stated as target binding affinity, ref not given; cited from earlier work
EGFR = conditions: read-out: IC50 for EGFR; stated as target binding affinity, ref not given; cited from earlier work
ErbB1 tyrosine kinase = conditions: read-out: IC50, ErbB1 tyrosine kinase; in vitro kinase assay; ref EGF10027 protocol, CIB RM2000/00481/06; cited from earlier work
ErbB2 tyrosine kinase = conditions: read-out: IC50, ErbB2 tyrosine kinase; in vitro kinase assay; ref EGF10027 protocol, CIB RM2000/00481/06; cited from earlier work
[7] = rats; ref EGF10027 protocol, CIB RM2000/00481/06; cited from earlier work
[8] = cited from earlier work; for frequency of achieving ≥75% inhibition of one of four key biomarkers (p-EGFR, p-ErbB2, p-ERK1/2, p-AKT): tumor
[9] = cancer patients, once daily dosing up to 1800 mg, preliminary

Structure (SMILES): CS(=O)(=O)CCNCc1ccc(-c2ccc3ncnc(Nc4ccc(OCc5cccc(F)c5)c(Cl)c4)c3c2)o1 [lapatinib]
- p-HER3 post-treatment OD, mean (HER3; mean of listed subjects): 10.40 OD
- HER3 phosphorylation in tumor (HER3; one patient with ABCB1 SNP C3435T, plasma 1 μM, tumor 9 μM): complete inhibition
- p-HER3 post-treatment OD (HER3; subject 5, tumor 25.60 µM): 16 OD
- p-HER3 post-treatment OD (HER3; subject 124, tumor 56.02 µM): 7 OD
- p-HER3 post-treatment OD (HER3; subject 801, tumor 1.98 µM): 14 OD
- p-HER3 post-treatment OD (HER3; subject 803, tumor 2.08 µM): 5 OD
- p-HER3 post-treatment OD (HER3; subject 804, tumor 7.90 µM): 11 OD
- p-HER3 post-treatment OD (HER3; subject 1401, tumor 1.02 µM): 3 OD
- p-HER3 post-treatment OD (HER3; subject 1405, tumor 12.76 µM): 18 OD
- IC90 in multiple HER2+ human breast cancer cell lines [1]: ~500 ng/mL (≈ 0.86 µM)
- IC90 ([1]; read-out: IC90 in multiple HER2+ human breast cancer cell lines): ~900 nM
- in vitro IC90 for inhibition of HER2 phosphorylation (HER2 phosphorylation): ~500 ng/mL
- IC90 (HER2 phosphorylation; read-out: in vitro IC90 for inhibition of HER2 phosphorylation): ~900 nM
- IC50 (efflux transporter ABCB1): 4 µM
- dose recovered in bile ([3]; bile duct cannulated male rats, within 5 hours after dosing): 32%
- overall recovery of radioactivity (nearly quantitative in feces) ([3]; oral, male Wistar Han rats): 90.0%
- overall recovery of radioactivity (nearly quantitative in feces) [4]: 89.9%
- CYP3A4 inhibition (CYP3A4): inhibitory pot ential towards CYP3A4
- clinical benefit response rate [5]: 6%
- subjects with dose-limiting toxicity (diarrhea) ([6]; 900 mg BID): 2 of 6
- incidence of diarrhea [6, 9]: 18-25%
- incidence of nausea [6, 9]: < 10%
- incidence of rash [6, 9]: < 10%
- incidence of gastrointestinal intolerance (nausea, vomiting and diarrhea) ([6]; patients receiving twice daily dosing (900 or 750 mg)): ~34%
- AUC with 900 mg BID compared with 1800 mg once daily, higher ([6]; patients): ~ two-fol d
- IC50 (HER2): 25 nM
- IC50 (ErbB1 tyrosine kinase): 10 nM
- IC50 (ErbB2 tyrosine kinase): 9 nM
- single intravenous dose with no deaths [7]: ≤ 21 mg/kg
- single oral dose with no deaths [7]: up to 2,000 mg/kg
- incidence of rash ([8]; cancer patients, preliminary, ref study EGF10004): 12%
- maximum tolerated dose (not reached at maximum dose given) ([8]; patients, ref preliminary analysis of EGF10004): > 1800 mg/day
- frequency of achieving ≥75% inhibition of one of four key biomarkers (p-EGFR, p-ErbB2, p-ERK1/2, p-AKT) ([8]; 650 mg once daily, ref study EGF10004, listed as GW572016): 50%
- frequency of achieving ≥75% inhibition of one of four key biomarkers (p-EGFR, p-ErbB2, p-ERK1/2, p-AKT) ([8]; 900 mg once daily, ref study EGF10004, listed as GW572016): 44%
- frequency of achieving ≥75% inhibition of one of four key biomarkers (p-EGFR, p-ErbB2, p-ERK1/2, p-AKT) ([8]; 1200 mg once daily, ref study EGF10004): 75%
- frequency of achieving ≥75% inhibition of one of four key biomarkers (p-EGFR, p-ErbB2, p-ERK1/2, p-AKT) ([8]; 1600 mg once daily, ref study EGF10004, listed as GW572016): 83%
